Tests used:
[1] = target: T1, Amine oxidase [flavin-containing] B (Bos taurus, UniProt P56560); assay: Tested for inhibition- binding affinity against monoamine oxidase B catalyzed oxidation.; details: read-out: kon (M-1-s-1)
T1 sequence (P56560 whole entry): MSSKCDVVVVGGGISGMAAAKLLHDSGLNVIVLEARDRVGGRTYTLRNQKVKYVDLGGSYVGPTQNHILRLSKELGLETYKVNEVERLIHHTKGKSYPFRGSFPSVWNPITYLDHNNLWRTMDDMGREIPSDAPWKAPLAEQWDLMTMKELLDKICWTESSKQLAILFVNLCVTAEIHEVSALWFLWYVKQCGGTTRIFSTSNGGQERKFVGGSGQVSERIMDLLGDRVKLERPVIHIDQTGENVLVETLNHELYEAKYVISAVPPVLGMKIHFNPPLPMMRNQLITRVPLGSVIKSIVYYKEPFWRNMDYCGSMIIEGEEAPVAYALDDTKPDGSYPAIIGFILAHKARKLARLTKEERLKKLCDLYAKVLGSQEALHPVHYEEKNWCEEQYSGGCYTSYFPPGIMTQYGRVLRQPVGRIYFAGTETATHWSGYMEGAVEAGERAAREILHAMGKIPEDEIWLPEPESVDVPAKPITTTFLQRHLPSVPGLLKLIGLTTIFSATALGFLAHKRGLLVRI

[2] = target: T2, Amine oxidase [flavin-containing] A (Homo sapiens, UniProt P21397); assay: Tested for inhibition- binding affinity against monoamine oxidase A catalyzed oxidation.; details: read-out: kon (M-1-s-1)
T2 sequence (P21397 whole entry): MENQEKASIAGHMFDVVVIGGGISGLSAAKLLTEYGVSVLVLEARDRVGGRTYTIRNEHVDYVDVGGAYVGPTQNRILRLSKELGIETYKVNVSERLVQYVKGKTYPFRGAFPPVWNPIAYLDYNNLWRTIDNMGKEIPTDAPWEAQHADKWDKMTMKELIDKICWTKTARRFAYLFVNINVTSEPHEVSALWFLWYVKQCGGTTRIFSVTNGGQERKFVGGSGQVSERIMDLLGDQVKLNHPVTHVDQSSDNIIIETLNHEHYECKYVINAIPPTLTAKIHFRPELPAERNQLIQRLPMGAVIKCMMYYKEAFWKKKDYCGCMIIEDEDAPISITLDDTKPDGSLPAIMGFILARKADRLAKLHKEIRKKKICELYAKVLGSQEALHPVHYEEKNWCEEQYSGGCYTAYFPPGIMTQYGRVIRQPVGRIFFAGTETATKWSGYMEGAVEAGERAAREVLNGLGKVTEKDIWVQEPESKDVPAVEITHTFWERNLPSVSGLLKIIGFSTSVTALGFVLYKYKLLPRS

SMILES | kon [1] | kon [2]
C1=C(c2cccc(-c3ccccc3)c2)CCN(C2CC2)C1 | 440000 M⁻¹ s⁻¹ | 680000 M⁻¹ s⁻¹
C1=C(c2ccc3ccccc3c2)CCN(C2CC2)C1 | 150000 M⁻¹ s⁻¹ | 380000 M⁻¹ s⁻¹
C1=C(c2cccc3ccccc23)CCN(C2CC2)C1 | 110000 M⁻¹ s⁻¹ | 400000 M⁻¹ s⁻¹
C1=C(c2ccccc2-c2ccccc2)CCN(C2CC2)C1 | – | 220000 M⁻¹ s⁻¹
C1=C(c2ccccc2)CCN(C2CC2)C1 | 180000 M⁻¹ s⁻¹ | 50000 M⁻¹ s⁻¹
